Results: patent US20240309038A1, “NOVEL GALACTOSIDE INHIBITOR OF GALECTINS” (GALECTO BIOTECH AB, priority 2020, published 2024)

target: Gal-3 (Homo sapiens, UniProt P17931); assay: Fluorescence anisotropy assay, inhibition of galectin / fluorescein tagged saccharide probe interaction; format: binding
Method: The affinity of Example 1-59 for galectins were determined by a fluorescence anisotropy assay where the compound was used as an inhibitor of the interaction between galectin and a fluorescein tagged saccharide probe as described Sörme, P., Kahl-Knutsson, B., Huflejt, M., Nilsson, U. J., and Leffler H. (2004) Fluorescence polarization as an analytical tool to evaluate galectin-ligand interactions. Anal. Biochem. 334: 36-47, (Sarme et al., 2004)

Gal-3, sequence (P17931 whole entry, species assumed): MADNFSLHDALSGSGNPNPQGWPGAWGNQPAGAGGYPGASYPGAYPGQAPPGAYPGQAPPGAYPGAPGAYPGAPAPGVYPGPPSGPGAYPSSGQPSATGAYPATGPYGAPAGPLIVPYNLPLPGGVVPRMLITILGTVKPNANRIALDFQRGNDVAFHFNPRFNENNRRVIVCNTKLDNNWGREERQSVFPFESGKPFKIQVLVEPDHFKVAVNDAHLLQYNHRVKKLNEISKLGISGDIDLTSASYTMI

Q: Cc1nnc([C@@H]2OC(CO)[C@H](O)C(n3cc(-c4cc(F)c(Cl)c(F)c4)cn3)C2O)n1-c1cc(Cl)ccc1C(F)(F)F (single isomer, unassigned) [Example 10, 1-{3-{3-[4-(4-Chloro-3,5-difluorophenyl)-1H-1,2-pyrazol-1-yl]-3-deoxy-β-D-galactopyranosyl}-5-methyl-4H-1,2,4-triazol-4-yl}-5-chloro-2-(trifluoromethyl)benzene] was tested. Which Kd did it give?
A: 0.37 µM

Q: With Cc1nnc([C@@H]2OC(CO)[C@H](O)C(n3cc(-c4cc(F)c(Cl)c(F)c4)cn3)C2O)n1-c1cc(Cl)ccc1C(F)(F)F (single isomer, unassigned) [Example 11, 1-{3-{3-[4-(4-Chloro-3,5-difluorophenyl)-1H-1,2-pyrazol-1-yl]-3-deoxy-β-D-galactopyranosyl}-5-methyl-4H-1,2,4-triazol-4-yl}-5-chloro-2-(trifluoromethyl)benzene] as the compound, how does the Kd read?
A: 0.007 µM

Q: For Cc1nc([C@@H]2OC(CO)[C@H](O)C(n3cc(-c4cc(F)c(F)c(F)c4)cn3)C2O)n(-c2cc(Cl)ccc2C(F)(F)F)n1 (stereo in doubt) [Example 3, 5-Chloro-1-{5-{3-deoxy-3-[4-(3,4,5-trifluorophenyl)-1H-1,2-pyrazol-1-yl]-β-D-galactopyranosyl}-3-methyl-1H-1,2,4-triazol-1-yl}-2-(trifluoromethyl)benzene], which Kd is on record?
A: 0.009 µM

Q: How did the Kd turn out when Cc1nc([C@@H]2OC(CO)[C@H](O)C(n3cc(-c4cc(F)c(F)c(F)c4)cn3)C2O)n(-c2cc(-c3cc(F)c(F)c(F)c3)ccc2C(F)(F)F)n1 (stereo in doubt) [Example 4, 1-{5-{3-Deoxy-3-[4-(3,4,5-trifluorophenyl)-1H-1,2-pyrazol-1-yl]-β-D-galactopyranosyl}-3-methyl-1H-1,2,4-triazol-1-yl}-2-(trifluoromethyl)-2-(3,4,5-trifluorophenyl)benzene] was run?
A: 0.2 µM

Q: With Cc1nc([C@@H]2OC(CO)[C@H](O)C(n3cc(-c4cccc(F)n4)cn3)C2O)n(-c2cc(Cl)ccc2C(F)(F)F)n1 (stereo in doubt) [Example 6, 5-Chloro-1-{5-{3-deoxy-3-[4-(6-fluoropyridin-2-yl)-1H-1,2-pyrazol-1-yl]-β-D-galactopyranosyl}-3-methyl-1H-1,2,4-triazol-1-yl}-2-(trifluoromethyl)benzene] as the compound, how does the Kd read?
A: 0.13 µM

Q: How did the Kd turn out when Cc1nc([C@@H]2OC(CO)[C@H](O)C(n3cc(-c4cc(F)ccn4)cn3)C2O)n(-c2cc(Cl)ccc2C(F)(F)F)n1 (stereo in doubt) [Example 7, 5-Chloro-1-{5-{3-deoxy-3-[4-(4-fluoropyridin-2-yl)-1H-1,2-pyrazol-1-yl]-β-D-galactopyranosyl}-3-methyl-1H-1,2,4-triazol-1-yl}-2-(trifluoromethyl)benzene] was run?
A: 0.082 µM

Q: Which Kd does the source give for Cc1nc([C@@H]2OC(CO)[C@H](O)C(n3cc(-c4cc(F)c(Cl)c(F)c4)c(C)n3)C2O)n(-c2cc(Cl)ccc2C(F)(F)F)n1 (stereo in doubt) [Example 12, 1-{5-{3-[4-(4-Chloro-3,5-difluorophenyl)-3-methyl-1H-1,2-pyrazol-1-yl]-3-deoxy-β-D-galactopyranosyl}-3-methyl-1H-1,2,4-triazol-1-yl}-5-chloro-2-(trifluoromethyl)benzene] here?
A: 0.011 µM

Q: Cc1nc([C@@H]2OC(CO)[C@H](O)C(n3cc(-c4cc(F)c(Cl)cn4)cn3)C2O)n(-c2cc(Cl)ccc2C(F)(F)F)n1 (stereo in doubt) [Example 14, 1-{5-{3-[4-(5-Chloro-4-fluoropyridin-2-yl)-1H-1,2-pyrazol-1-yl]-3-deoxy-β-D-galactopyranosyl}-3-methyl-1H-1,2,4-triazol-1-yl}-5-chloro-2-(trifluoromethyl)benzene] was tested. Which Kd did it give?
A: 0.024 µM

Q: For Cc1nc([C@@H]2OC(CO)[C@H](O)C(n3cc(-c4cc(F)c(C)cn4)cn3)C2O)n(-c2cc(Cl)ccc2C(F)(F)F)n1 (stereo in doubt) [Example 15, 5-Chloro-1-{5-{3-deoxy-3-[4-(4-fluoro-5-methylpyridin-2-yl)-1H-1,2-pyrazol-1-yl]-β-D-galactopyranosyl}-3-methyl-1H-1,2,4-triazol-1-yl}-2-(trifluoromethyl)benzene], which Kd is on record?
A: 0.013 µM

Q: How did the Kd turn out when Cc1nc([C@@H]2OC(CO)[C@H](O)C(n3cc(-c4cc(C)c(Cl)cn4)cn3)C2O)n(-c2cc(Cl)ccc2C(F)(F)F)n1 (stereo in doubt) [Example 16, 1-{5-{3-[4-(5-Chloro-4-methylpyridin-2-yl)-1H-1,2-pyrazol-1-yl]-3-deoxy-β-D-galactopyranosyl}-3-methyl-1H-1,2,4-triazol-1-yl}-5-chloro-2-(trifluoromethyl)benzene] was run?
A: 0.14 µM

Q: How did the Kd turn out when C#Cc1c(F)cc(-c2cnn(C3C(O)[C@H](c4nc(C)nn4-c4cc(Cl)ccc4C(F)(F)F)OC(CO)[C@@H]3O)c2)cc1F (stereo in doubt) [Example 17, 5-Chloro-1-{5-{3-deoxy-3-[4-(4-ethynyl-3,5-difluorophenyl)-1H-1,2-pyrazol-1-yl]-β-D-galactopyranosyl}-3-methyl-1H-1,2,4-triazol-1-yl}-2-(trifluoromethyl)benzene] was run?
A: 0.06 µM

Q: For C#CCc1c(F)cc(-c2cnn(C3C(O)[C@H](c4nc(C)nn4-c4cc(Cl)ccc4C(F)(F)F)OC(CO)[C@@H]3O)c2)cc1F (stereo in doubt) [Example 18, 5-Chloro-1-{5-{3-deoxy-3-{4-[3,5-difluoro-4-(2-propyn-1-yl)phenyl]-1H-1,2-pyrazol-1-yl}-β-D-galactopyranosyl}-3-methyl-1H-1,2,4-triazol-1-yl}-2-(trifluoromethyl)benzene], which Kd is on record?
A: 0.026 µM

Q: Which Kd does the source give for Cc1nc([C@@H]2OC(CO)[C@H](O)C(n3cc(-c4cc(F)c(F)c(F)c4)cn3)C2O)n(-c2cncc(Br)c2)n1 (stereo in doubt) [Example 19, 5-Bromo-3-{5-{3-deoxy-3-[4-(3,4,5-trifluorophenyl)-1H-1,2-pyrazol-1-yl]-β-D-galactopyranosyl}-3-methyl-1H-1,2,4-triazol-1-yl}pyridine] here?
A: 0.025 µM

Q: With Cc1nc([C@@H]2OC(CO)[C@H](O)C(n3cc(-c4cc(F)c(F)c(F)c4)cn3)C2O)n(-c2cc(Cl)cnc2C(F)(F)F)n1 (stereo in doubt) [Example 20, 5-Chloro-3-{5-{3-deoxy-3-[4-(3,4,5-trifluorophenyl)-1H-1,2-pyrazol-1-yl]-β-D-galactopyranosyl}-3-methyl-1H-1,2,4-triazol-1-yl}-2-(trifluoromethyl)pyridine] as the compound, how does the Kd read?
A: 0.011 µM

Q: With Cc1nc([C@@H]2OC(CO)[C@H](O)C(n3cc(-c4cc(F)c(F)c(F)c4)cn3)C2O)n(-c2cc(Cl)cnc2C#N)n1 (stereo in doubt) [Example 21, 5-Chloro-2-cyano-3-{5-{3-deoxy-3-[4-(3,4,5-trifluorophenyl)-1H-1,2-pyrazol-1-yl]-β-D-galactopyranosyl}-3-methyl-1H-1,2,4-triazol-1-yl}pyridine] as the compound, how does the Kd read?
A: 0.082 µM

Q: For Cc1nc([C@@H]2OC(CO)[C@H](O)C(n3cc(-c4cc(F)c(F)c(F)c4)cn3)C2O)n(-c2cc(Br)cnc2C#N)n1 (stereo in doubt) [Example 22, 5-Bromo-2-cyano-3-{5-{3-deoxy-3-[4-(3,4,5-trifluorophenyl)-1H-1,2-pyrazol-1-yl]-β-D-galactopyranosyl}-3-methyl-1H-1,2,4-triazol-1-yl}pyridine], which Kd is on record?
A: 0.033 µM

Q: Cc1nc([C@@H]2OC(CO)[C@H](O)C(n3cc(-c4cc(F)c(F)c(F)c4)cn3)C2O)n(-c2cc(Br)ccc2C(F)(F)F)n1 (stereo in doubt) [Example 24, 5-Bromo-1-{5-{3-deoxy-3-[4-(3,4,5-trifluorophenyl)-1H-1,2-pyrazol-1-yl]-β-D-galactopyranosyl}-3-methyl-1H-1,2,4-triazol-1-yl}-2-(trifluoromethyl)benzene] was tested. Which Kd did it give?
A: 0.002 µM

Q: Cc1nc([C@@H]2OC(CO)[C@H](O)C(n3cc(-c4cc(F)c(F)c(F)c4)cn3)C2O)n(-c2cc(Br)cnc2C(F)(F)F)n1 (stereo in doubt) [Example 25, 5-Bromo-3-{5-{3-deoxy-3-[4-(3,4,5-trifluorophenyl)-1H-1,2-pyrazol-1-yl]-β-D-galactopyranosyl}-3-methyl-1H-1,2,4-triazol-1-yl}-2-(trifluoromethyl)pyridine] was tested. Which Kd did it give?
A: 0.011 µM

Q: Which Kd does the source give for Cc1nc([C@@H]2OC(CO)[C@H](O)C(n3cc(-c4cc(F)c(F)c(F)c4)cn3)C2O)n(-c2cc(Br)ccc2C#N)n1 (stereo in doubt) [Example 26, 5-Bromo-2-cyano-1-{5-{3-deoxy-3-[4-(3,4,5-trifluorophenyl)-1H-1,2-pyrazol-1-yl]-β-D-galactopyranosyl}-3-methyl-1H-1,2,4-triazol-1-yl}benzene] here?
A: 0.015 µM

Q: How did the Kd turn out when Cc1nc([C@@H]2OC(CO)[C@H](O)C(n3cc(-c4cc(F)c(F)c(F)c4)cn3)C2O)n(-c2cc(Cl)ccc2C#N)n1 (stereo in doubt) [Example 27, 5-Chloro-2-cyano-1-{5-{3-deoxy-3-[4-(3,4,5-trifluorophenyl)-1H-1,2-pyrazol-1-yl]-β-D-galactopyranosyl}-3-methyl-1H-1,2,4-triazol-1-yl}benzene] was run?
A: 0.037 µM

Q: For Cc1nc([C@@H]2OC(CO)[C@H](O)C(n3cc(-c4cc(F)c(Cl)c(F)c4)cn3)C2O)n(-c2cc(Cl)cnc2C(F)(F)F)n1 (stereo in doubt) [Example 28, 3-{5-{3-[4-(4-Chloro-3,5-difluorophenyl)-1H-1,2-pyrazol-1-yl]-3-deoxy-β-D-galactopyranosyl}-3-methyl-1H-1,2,4-triazol-1-yl}-5-chloro-2-(trifluoromethyl)pyridine], which Kd is on record?
A: 0.015 µM

Q: CCOC(=O)c1nn(C2C(O)[C@H](c3nc(C)nn3-c3cc(Cl)ccc3C(F)(F)F)OC(CO)[C@@H]2O)cc1-c1cc(F)c(Cl)c(F)c1 (stereo in doubt) [Example 29, 1-{5-{3-[4-(4-Chloro-3,5-difluorophenyl)-3-ethoxycarbonyl-1H-1,2-pyrazol-1-yl]-3-deoxy-β-D-galactopyranosyl}-3-methyl-1H-1,2,4-triazol-1-yl}-5-chloro-2-(trifluoromethyl)benzene] was tested. Which Kd did it give?
A: 0.028 µM
